Test results from patent US20060019934A1, “Anti-HIV-1 activity of betulinol derivatives” (priority 2004, published 2006).
Where two headings read alike, the source gives them in different places.

Columns and labels:
HIV-1 IIIB isolate = test: HIV-1 p24 antigen capture ELISA, acutely infected 174XCEM cells; format: cell-based; conditions: for anti-HIV-1 activity compared with other betulinol derivatives: 1 μg/ml, p24 OD, FIG. 1
From the text: The assay methods described herein are known in the art, and are described in detail, for example, in Crombie et al., J. Exp. Med. 187:25-35 (1998), which is hereby incorporated by reference in its entirety.
Cultures were maintained in culture medium (RPMI-1640+10% fetal bovine serum (“FBS”)) for 4 days, the culture supernatants were then collected, lysed with Triton®-X 100 surfactant, and HIV-1 gag (p24) antigen activity assessed by a standard technique, the Antigen Capture ELISA (enzyme-linked immunosorbent assay) (Roche-NEN).
Data are presented in optical density (“OD”) units, which are linear with ng/ml of p24 Ag from 0.15 to 1.5 OD, and can be converted to pg/ml of HIV-1 antigen using a standard curve.

174XCEM cells = test: Cell viability by trypan blue dye exclusion; conditions: for effect on total cell number or cell viability: trypan blue dye exclusion at four days and seven days
Procedure: Human T-B hybridoma cell line 174XCEM was exposed to a low multiplicity of infection (“MOI”) (MOI=1.0) of stock HIV-1 IIIB isolate for 2 hours at 37° C., washed ×3 with phosphate buffered saline (“PBS”), then plated at 250,000 cells/well in the presence of various agents, shown in Table 2. Dimethyl sulfoxide (“DMSO”) buffer was used as a “no virus” control. A commercially available synthetic peptide, thrombospondin peptide (“TSP”), known as having HIV-1 inhibitory activity, was used as an “inhibitory activity” control. Two HIV isolates were used, a patient isolate (“child HIV”), and the standard CXCR4 co-receptor utilizing isolate IIIB.
The cell samples were assessed by trypan blue dye exclusion at four days and seven days.

another HIV-1 isolate = test: Effect on 174XCEM cells chronically infected with another HIV-1 isolate; format: cell-based
Procedure: Agents were also evaluated for an effect on 174XCEM cells chronically infected with another HIV-1 isolate.

[1] = test system: carcinoma cell line CO-115 of the large intestine; conditions: CO-115 cells; cited from earlier work
[2] = Hashimoto et al. 1997; cited from earlier work
[3] = varying doses up to 2 μg/ml, FIG. 3-5
[4] = 174XCEM cells, HIV-1 IIIB, agents 1 μg/ml, p24 at 4 days, FIG. 2
[5] = chronically infected 174XCEM cells, single dose 1 μg/ml

Compound: C=C(C)[C@@H]1CC[C@]2(CO)CC[C@]3(C)[C@H](CC[C@@H]4[C@@]5(C)CC[C@H](OC(C)=O)C(C)(C)[C@@H]5CC[C@]43C)[C@@H]12 [3-acetoxy betulin]
- anti-HIV-1 activity compared with other betulinol derivatives (HIV-1 IIIB isolate): superior
- effect on total cell number or cell viability (174XCEM cells): no effect

Compound: C=C(C)[C@@H]1CC[C@]2(COC(C)=O)CC[C@]3(C)[C@H](CC[C@@H]4[C@@]5(C)CC[C@H](O)C(C)(C)[C@@H]5CC[C@]43C)[C@@H]12 [28-acetoxy betulin]
- anti-HIV-1 activity compared with other betulinol derivatives (HIV-1 IIIB isolate): superior
- dose-related anti-HIV effect (HIV-1 IIIB isolate; [3]): comparable anti-HIV-1 activity
- effect on total cell number or cell viability (174XCEM cells): no effect

Compound: C=C(C)[C@@H]1CC[C@]2(COC(C)=O)CC[C@]3(C)[C@H](CC[C@@H]4[C@@]5(C)CC[C@H](OC(C)=O)C(C)(C)[C@@H]5CC[C@]43C)[C@@H]12 [betulin diacetate]
- dose-related anti-HIV effect (HIV-1 IIIB isolate): Progressive increases in anti-HIV effect
- inhibition (anti-HIV-1 effect) (HIV-1 IIIB isolate): 57%
- cell toxicity (174XCEM cells; doses of 0.5, 1.5, and 2 μg/ml): without cell toxicity
- inhibition in chronically infected cells (another HIV-1 isolate): 20%

Compound: C=C(C)[C@@H]1CC[C@]2(C(=O)O)CC[C@]3(C)[C@H](CC[C@@H]4[C@@]5(C)CC[C@H](O)C(C)(C)[C@@H]5CC[C@]43C)[C@@H]12 [betulinic acid]
- LD 50 [1]: 0.375 mg/mL

Compound: C=C(C)C1CCC2(CO)CC[C@]3(C)[C@H](CC[C@@H]4[C@@]5(C)CCC(O)C(C)(C)[C@@H]5CC[C@]43C)C12 (stereo partly drawn) [betulinol, lup-20(29)-ene-3β, 28-diol]
- inhibition (anti-HIV-1 effect) (HIV-1 IIIB isolate; [4]): no effect
- dose-related anti-HIV effect (HIV-1 IIIB isolate; [3]): increasing anti-HIV effect
- inhibition in chronically infected cells (another HIV-1 isolate; [5]): minimal effect

Compound: C=C(C)C1CCC2(C=O)CC[C@]3(C)[C@H](CC[C@@H]4[C@@]5(C)CCC(=O)C(C)(C)[C@@H]5CC[C@]43C)C12 (stereo partly shown) [betulone aldehyde]
- inhibition (anti-HIV-1 effect) (HIV-1 IIIB isolate; [4]): 37%
- dose-related anti-HIV effect (HIV-1 IIIB isolate; [3]): Progressive increases in anti-HIV effect
- inhibition in chronically infected cells (another HIV-1 isolate; [5]): minimal effect

Compound: C=C(C)[C@@H]1CC[C@]2(C(=O)O)CC[C@]3(C)[C@H](CC[C@@H]4[C@@]5(C)CCC(=O)C(C)(C)[C@@H]5CC[C@]43C)[C@@H]12 [betulonic acid]
- cytotoxicity, interfering with the proliferation of cells [2]: cytotoxic

Compound: betulin dimethyl ether
- anti-HIV-1 activity compared with other betulinol derivatives (HIV-1 IIIB isolate): superior
- effect on total cell number or cell viability (174XCEM cells): no effect
